Reference: patent US20250289788A1, “HALOALKYL SULFONANILIDE COMPOUND AND HERBICIDE CONTAINING THE SAME” (SDS BIOTECH K.K., priority 2022, published 2025)

How the values were obtained:
Type in all cases: in vivo
[1] = test system: Ammannia multiflora (AM); assay: Comparative Example: herbicidal efficacy test of treatment during growth stage under flooding conditions; conditions: treatment during growth stage (14 days after sowing), day 21 after treatment
Excerpt: (§1) The control compound a is described as Compound No. III-1 on page 245 of PLT 5, and the control compound b is described as Compound No. III-9 on page 245 of PTL 5. […] As an example, herbicidal efficacy against critical paddy field weeds such as Monochoria vaginalis (MV) and Ammannia multiflora (AM) as well as Oryza sativa (OS) chemical damage were compared and are specifically described below as a Comparative Example.
(§2) [Comparative Example] Herbicidal Efficacy Test of Treatment During Growth Stage […] Under Flooding Conditions
(§3) After each 40-cm^2 plastic cup was loaded with puddled paddy field soil, seeds of each of Monochoria vaginalis (MV) or Ammannia multiflora (AM) were sown and grown in a greenhouse. After plants were grown for 14 days, one rice plant (variety: Nippon-bare) at the 2-leaf stage was transplanted at a transplanting depth of 1 cm. Water was flooded to a depth of 3 cm, and wettable powder containing the present invention compound, which had been adjusted according to Formulation Example 1, or each control compound was diluted with distilled water and applied dropwise to the water surface. The amount applied was 125, 63, or 31 g of active ingredient per hectare. The test was conducted in two series. On day 21 after treatment, the herbicidal efficacy and chemical damage were examined according to the following criteria.
(§4) 9-10 . . . Herbicidal activity “Maximum”, 90% or higher herbicidal efficacy or chemical damage
(§5) 7 to 8 . . . Herbicidal activity “high”, 70% or higher and less than 90% herbicidal efficacy or chemical damage
(§6) 5 to 6 . . . Herbicidal activity “medium”, 50% or higher and less than 70% herbicidal efficacy or chemical damage
(§7) 0 to 4 . . . Herbicidal activity “none to low”, 0% or higher and less than 50% herbicidal efficacy or chemical damage

[2] = test system: Monochoria vaginalis (MV); assay: as above; conditions: treatment during growth stage (14 days after sowing), day 21 after treatment
Excerpt: as §1, §2, §3, §4, §5, §6, §7

[3] = test system: Oryza sativa (OS); assay: Comparative Example: chemical damage to transplanted rice under flooding conditions; conditions: applied dropwise to water surface, day 21 after treatment
Excerpt: as §1, §2, §3, §4, §5, §6, §7

[4] = test system: Echinochloa crus-galli var. oryzicola (EC); assay: Test Example 1: herbicidal effect test using paddy field flooding treatment; conditions: dose 1000 g a.i./ha, water surface application, 21 days after treatment
Procedure: (§8) <Test Example 1> Herbicidal Effect Test Using Paddy Field Flooding Treatment
(§9) After each 40-cm^2 plastic cup was loaded with puddled paddy field soil, seeds of each of the following species were sown and grown in a greenhouse: Echinochloa crus-galli var. oryzicola (EC), Schoenoplectiella juncoides (SJ), Monochoria vaginalis (MV), or Ammannia multiflora (AM). After plants were grown for 14 days, water was flooded to a depth of 3 cm, and a 10% wettable powder, which had been adjusted according to Formulation Example 1, was diluted with distilled water and applied dropwise to the water surface. The amount applied was 1000, 500, 250, 125, 63, 31, or 16 g of active ingredient per hectare. The test was conducted in two series. Herbicidal efficacy (degree (%) of suppression of growth of terrestrial part: 100 (complete death) to 0 (no action)) was investigated at 21 days after the treatment.

[5] = test system: Schoenoplectiella juncoides (SJ); assay: as above; conditions: dose 16 g a.i./ha, water surface application, 21 days after treatment
Procedure: as §8, §9

Compound	herbicidal efficacy AM (score 0-10) ([1]; 31 g a.i./ha)	herbicidal efficacy AM (score 0-10) ([1]; 63 g a.i./ha)	herbicidal efficacy AM (score 0-10) ([1]; 125 g a.i./ha)	herbicidal efficacy MV (score 0-10) ([2]; 31 g a.i./ha)	herbicidal efficacy MV (score 0-10) ([2]; 63 g a.i./ha)	herbicidal efficacy MV (score 0-10) ([2]; 125 g a.i./ha)	chemical damage to transplanted rice OS (score 0-10) ([3]; 31 g a.i./ha)	chemical damage to transplanted rice OS (score 0-10) ([3]; 63 g a.i./ha)	chemical damage to transplanted rice OS (score 0-10) ([3]; 125 g a.i./ha)	herbicidal efficacy (degree (%) of suppression of growth of terrestrial part) [4] [%]	herbicidal efficacy (degree (%) of suppression of growth of terrestrial part) [5] [%]
CCOC(=O)N(c1ccccc1CN1CCc2ccccc2C1=O)S(=O)(=O)C(F)(F)F [Compound 3-139]	10	10	10	7	10	10	0	0	0	–	–
O=C1Cc2cc(F)ccc2N1Cc1ccccc1NS(=O)(=O)C(F)(F)F [Compound 8-2]	–	–	–	–	–	–	–	–	–	≥ 80	–
CC=CC(=O)N(c1ccccc1CN1CCc2c(F)ccc(F)c2C1=O)S(=O)(=O)C(F)(F)F [Compound 3-116]	–	–	–	–	–	–	–	–	–	–	≥ 80
O=C1CCCCN1Cc1ccccc1NS(=O)(=O)C(F)(F)F [Compound a]	10	10	10	10	10	10	6	10	10	–	–
CCOC(=O)N(c1ccccc1CN1CCCCC1=O)S(=O)(=O)C(F)(F)F [Compound b]	10	10	10	7	10	10	3	8	10	–	–
O=C1c2ccccc2CCN1Cc1ccccc1NS(=O)(=O)C(F)(F)F [Compound 3-1]	10	10	10	10	10	10	0	0	0	–	–
